Results: patent US10905897B2, “Synergistic treatment methodologies using light therapy” (Neuro-Laser Foundation, Inc., priority 2016, dated 2021)

Tests used:
post-concussive syndrome = conditions: double-blind, placebo-controlled; cited from earlier work
depression = assay: Clinical experience with ketamine treatment for depression; conditions: extensive clinical experience
[1] = test system: nerves involved in polyneuropathy; assay: Polyneuropathy treatment: ketamine administration followed by infrared light, nerve conduction; format: in vivo, human; conditions: then 810 nm and 980 nm light, 10.5 watts, continuous wave, 10 minutes, about 9-10 treatments
Excerpt: In one embodiment, the inventive method can be employed to treat an exemplary case of polyneuropathy. In this example, a neurologist or other medical professional can conduct an EMG study (or other diagnostic procedure) to determine which nerve is involved, locate the distal portion of the nerve and the path through the body. Then, after the appropriate ketamine administration, as part of 910, the operator configures the system. For example, this can be accomplished by setting the wattage to 10.5 watts, setting the wavelengths to 810 nm and 980 nm, specifying continuous wave, setting duration at 10 minutes, and determining total joules to be about 6000. The operator would then activate the applicator over the nerve to be treated. Maintaining proximity and applying active circular techniques, the operator would move the applicator over the area of involvement, tracing the actual nerve or nerves involved. This might entail, for instance, moving from the hip down the leg to the foot, or from the hand up the arm to the shoulder. The active sweeping pattern is maintained throughout, while monitoring the temperature, light, duration and patient as well. The treatment is then reviewed with the patient and follow-up treatments are scheduled (usually approximately 9-10 treatments for this condition). […]

[2] = test system: depressive symptoms and suicidal ideation; conditions: single infusion; cited from earlier work
tau protein = conditions: transgenic mice overexpressing tau, cited from earlier work
postconcussive symptoms = conditions: patients with TBI; cited from earlier work
traumatic brain injury = conditions: two large U.S. studies; cited from earlier work

For `NC(=O)CN1CCCC1=O` [piracetam, Piracetam], which “symptoms of post-concussive syndrome, including headache and vertigo” value (post-concussive syndrome) is on record?
The value was “improved several symptoms”.

With `CNC1(c2ccccc2Cl)CCCCC1=O` (centres unmarked) [ketamine] as the molecule, how does the “patients treated for depression who see a favorable clinical response” value (depression) read?
Its value is “approximately 80%”.

What about the “increase in the conduction velocity of the nerves involved” value [1] of the same molecule?
Its value is 20-30%.

And the “duration of symptom relief with single infusions” value [2]?
The value was 4 to 10 days.

Which resulting blood levels (tau protein; dietary lithium chloride) does the source give for `[Cl-].[Li+]` [lithium chloride] here?
The resulting blood levels was ≤ 0.2 milli-Equivalents per liter.

And the “levels of tau protein accumulation upon pathological examination” value (tau protein)?
Its value is “significantly decreased”.

For `C[S+](CC[C@H](N)C(=O)O)C[C@H]1O[C@@H](n2cnc3c(N)ncnc32)[C@H](O)[C@@H]1O` (some centres unmarked) [SAMe, S-adenosylmethionine], which “improvement in clinical scores of postconcussive symptoms” value (postconcussive symptoms) is on record?
Its value is 77%.

Which “benefit in TBI” value (traumatic brain injury) does the source give for `C[N+](C)(C)CCOP(=O)(O)OP(=O)([O-])OC[C@H]1O[C@@H](n2ccc(N)nc2=O)[C@H](O)[C@@H]1O` [Citicholine] here?
The value was “failed to demonstrate significant benefit”.
